Source: US20080280815A1, “Lowering Serum Lipids” (Novo Nordisk A/S, priority 2000, published 2008)

What was measured:
[1] = test system: normal Wistar rats; test: Acute and subchronic anorectic effects, normal Wistar rats; assay type: in vivo, rat; details: lowered from 1.58±0.1, 100 μg/kg s.c. twice daily
[2] = test system: Wistar rats subjected to neonatal monosodium glutamate treatment (MSG); test: Acute and subchronic anorectic effects, model of hypothalamic obesity (MSG rats); assay type: in vivo, rat
Procedure: Solutions were always made fresh approximately 1 hour prior to use and stored at 4° C. in sterile tubes.

[3] = test system: male Zucker Diabetic Fatty fa/fa (ZDF) rat; test: Long-term treatment of male Zucker Diabetic Fatty fa/fa (ZDF) rats, model of Type 2 diabetes; assay type: in vivo; details: for Free fatty acids / Total cholesterol: mean ± SEM
From the text: The male Zucker Diabetic Fatty fa/fa (ZDF) rat is a model of Type 2 diabetes. The rats are insulin resistant but normoglycemic from birth and they develop diabetes from about week 7 to week 10 of age. During the transitional period, the animals go through a state of impaired glucose tolerance. Although the animals are hyperinsulinemic before diabetes onset and during the early stages of diabetes, they later lose glucose-stimulated insulin secretion and finally become almost completely insulinopenic.
Animals were between 7 and 8 weeks old when dosing was initiated, and fed glucose levels were not different between the groups before dosing began. […] After 36 days of dosing, an oral glucose tolerance test was performed in the animals after an 11-hour fast. One g/kg of glucose was administered by oral gavage and subsequent measurements of blood glucose and plasma insulin were made.
In addition to the effects on blood glucose and insulin, we also studied the effects of long-term treatment on lipid parameters. Thus, at the termination of the study, non-fasted plasma measurements of total cholesterol, free fatty acids were performed.

[4] = 100 μg/kg s.c. twice daily, normal and MSG rats not distinguished
[5] = initial effect, normalised within few days of treatment
[6] = 150 μg/kg s.c. bi-daily, non-fasted plasma at termination
[7] = group B, 30 μg/kg s.c. bi-daily, non-fasted plasma at termination
[8] = group C, 150 μg/kg s.c. bi-daily, non-fasted plasma at termination

Arg^34, Lys^26(N^ε-(γ-Glu(N^α-hexadecanoyl)))-GLP-1(7-37) [GLP1]
plasma levels of triglycerides [1]: 1.21 ± 0.3 mM | body weight [2, 4]: reduced | food intake [2, 4]: inhibition | diuresis [2, 5]: increases | water intake [2, 5]: Initial decreases | plasma parameters of renal function ([2]; throughout the experiment): remained normal | free fatty acids, group C compared to group A (vehicle) [3, 6]: significant reduction | total cholesterol, group C compared to group A (vehicle) [3, 6]: significant reduction | blood glucose state during a normal 24-hour feeding schedule ([3]; group B, 30 μg/kg s.c. bi-daily, after 10 days of dosing): hyperglycemic | Free fatty acids [3, 7]: 0.29 ± 0.04 mM | Total cholesterol [3, 7]: 2.9 ± 0.1 mM | blood glucose levels during a normal 24-hour feeding schedule vs vehicle- and low-dose-treated animals ([3]; group C, 150 μg/kg s.c. bi-daily, after 10 days of dosing): significantly lower | blood glucose levels during a normal 24-hour feeding schedule ([3]; group C, 150 μg/kg s.c. bi-daily, after 10 days of dosing, compared to initial measurements): unchanged | glycemic level in oral glucose tolerance test vs groups A and B ([3]; group C, 150 μg/kg s.c. bi-daily, after 36 days of dosing, 11-hour fast, 1 g/kg glucose by oral gavage): significantly lower | Free fatty acids [3, 8]: 0.20 ± 0.02 mM | Total cholesterol [3, 8]: 2.2 ± 0.1 mM
